Results reported in patent publication US11649220B2 (DEMOTECH.INC., priority 2018, dated 2023).

What was measured:
[1] = test system: Malondialdehyde (MDA) in serum; assay: In vivo anti-lipid oxidation experiment (serum MDA, TBA method); set-up: inhibition rate %: concentration or dose not given beside the values; conditions: MAD lipid peroxidation in vivo; for inhibition rate %: relative to solvent DMSO and Chow averages; for avarage value of OD: serum, TBA method, 532 nm
How it was run: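 Serum mixed with TBA-based reagents in acetic acid, heated at 95° C for 60 min, centrifuged, supernatant OD read at 532 nm. MDA calculated against 10 nmol/mL tetraethoxypropane standard after subtracting a per-sample control tube (50% glacial acetic acid replacing Reagent III); inhibition % normalised between Chow and DMSO-solvent groups.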

[2] = In vitro free radical inhibition test (DPPH method); conditions: 8 μL of 20 mmol/L compound in 1 mL DPPH 0.059 mg/mL ethanol, 60 min dark, 517 nm; for inhibition rate %: DPPH; for Relative inhibition ability on free radicals: inhibition rate of AGI1067 on DPPH defined as 100
How it was run: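 DPPH in absolute ethanol (0.059 mg/mL) was mixed with test compound (20 mmol/L stock) and kept in the dark at room temperature for 60 minutes. Radical scavenging was read as loss of absorbance at 517 nm.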

[3] = test system: golden hamsters (60% high-fat food, STZ induced); assay: Golden hamster disease model, animal model induction group (16-week-old group): blood biochemical indexes and body weight; type: in vivo; conditions: for change rate of blood glucose %: 0.1 mL of 6.8 mg/mL DMSO solution + 0.25 mL whole milk by gavage once a day for 2 weeks; for change rate of body weight after deduction of DMSO blank %: DMSO blank deducted; for average body weight after administration/g / change of body weight/g / change rate of body weight %: after gavage once a day for 2 weeks; for HDL % / LDL % / total cholesterol % / triglyceride %: change rate, gavage once a day for 2 weeks
Procedure: (§1) Animals and feed: 1) 8-week-old male golden hamsters with a body weight range of 100±5 g were selected; 2) 60% high-fat food; 3) 30% high-fat food; 4) general feed: NRC standard feed, containing 5% fat, total calories 4200 kcal/kg.
Animal model induction group (16-week-old group): 1) fed with 60% high-fat food for 2 weeks under standard environment; 2) STZ intraperitoneal injection twice every two days, 50 mg/kg each time; 3) After STZ induction, the golden hamsters were continuous fed for 1 week; 4) Blood was taken from the ocular venous plexus, and the initial body weight, blood glucose, total cholesterol, LDL-c, HDL-c and triglyceride were measured, and the golden hamsters were grouped in parallel according to animal biochemical indicators, 8 in each group; 5) Gavage of compounds: 0.1 mL of solution of compound (concentration: 6.8 mg/mL, DMSO solution) and 0.25 mL of whole milk were mixed evenly and administrated by gavage once a day for 2 weeks; 6) Blank control: 0.1 mL of DMSO and 0.25 mL of whole milk were mixed evenly and administrated by gavage once a day for 2 weeks; 7) Observation time: 14 days later, blood was taken from the ocular venous plexus, and the body weight, blood glucose, total cholesterol, LDL-c, HDL-c and triglyceride were measured.
(§2) Instruments: Shimadzu UV-1750 spectrophotometer, clinical determination kit (Changchun Huili Biotechnology Co., Ltd.)
(§3) Determination of blood glucose: glucose oxidase method, kit
(§4) Determination of total cholesterol (COD-PAP method), kit
(§5) Determination of low density lipoprotein cholesterol (direct method), kit
(§6) Determination of triglyceride (GP-PAP method)
(§7) Determination of high density lipoprotein (direct method), kit

[4] = test system: golden hamsters (high-fat food, STZ induced); assay: Golden hamster disease model, animal model induction group (24-week-old group): blood biochemical indexes and body weight; type: in vivo; conditions: for change rate of blood glucode %: 0.1 mL of 6.8 mg/mL DMSO solution + 0.25 mL whole milk by gavage once a day for 2 weeks; for change rate of body weight after deduction of DMSO blank %: DMSO blank deducted; for change of body weight/g / change rate of body weight %: after gavage once a day for 2 weeks; for HDL % / LDL % / total cholesterol % / triglyceride %: change rate, gavage once a day for 2 weeks; for average body weight at 24 weeks/g: initial weight before administration
From the text: as §1
Animal model induction group (24-week-old group): After STZ induction, the golden hamsters were continuous fed with 30% high-fat food for 8 weeks, blood was taken from the ocular venous plexus, and the initial body weight, blood glucose concentration, total cholesterol, LDL-c, HDL-c and triglyceride were measured, and the golden hamsters were grouped in parallel according to animal biochemical indicators, 8 in each group; 5) Gavage of compounds: 0.1 mL of solution of compound (concentration: 6.8 mg/mL, DMSO solution) and 0.25 mL of whole milk were mixed evenly and administrated by gavage once a day for 2 weeks; 6) Blank control: 0.1 mL of DMSO and 0.25 mL of whole milk were mixed and administrated by gavage, once a day for 2 weeks; 6) Blank control: 0.1 mL of DMSO were mixed with 0.25 mL of whole milk, and administrated by gavage, once a day for 2 weeks; 7) 14 days later, blood was taken from the ocular venous plexus, and the body weight, blood glucose, total cholesterol, LDL-c, HDL-c and triglyceride were measured.
as §2, §3, §4, §5, §6, §7

Structure (SMILES)	inhibition rate % [1]	avarage value of OD [1]	inhibition rate % [2]	Relative inhibition ability on free radicals [2]	change rate of blood glucose % [3]	change rate of body weight after deduction of DMSO blank % [3]	average body weight after administration/g [3]	change of body weight/g [3]	change rate of body weight % [3]	HDL % [3]	LDL % [3]	total cholesterol % [3]	triglyceride % [3]	change rate of blood glucode % [4]	change rate of body weight after deduction of DMSO blank % [4]	change of body weight/g [4]	change rate of body weight % [4]	HDL % [4]	LDL % [4]	total cholesterol % [4]	also measured
CC(O)c1cc(SSc2cc(C(C)O)c(O)c(C(C)(C)C)c2)cc(C(C)(C)C)c1O (centres unmarked) [Compound 5, 4,4′-disulfanediyl-bis(2-(tert-butyl)-6-(1-hydroxyethyl)phenol)]	79.6%	6.21	48.1%	110.2	19.7%	−1.9%	145.2 g	10.6 g	7.9%	38.8%	−24.9%	−12.2%	−28.5%	11.5%	−13.6%	-25.0 g	−21.1%	−69.2%	−33.9%	6.6%	triglyceride % [4]: −65.8%; average body weight at 24 weeks/g [4]: 118.1 g
CC(C)(Sc1cc(C(C)(C)C)c(O)c(C(C)(C)C)c1)Sc1cc(C(C)(C)C)c(OC(=O)CCC(=O)NCCS(=O)(=O)O)c(C(C)(C)C)c1 [Compound 26, 2-(4-(2,6-di-tert-butyl-4-((2-((3,5-di-tert-butyl-4-hydroxyphenyl)thio)propan-2-yl)thio)phenoxy)-4-oxobutanamido)ethane-1-sulfonic acid]	108.7%	5.10	16.3%	37.4	−16.8%	−2.9%	145.2 g	9.4 g	6.9%	108.8%	−6.2%	−9.0%	3.0%	−14.2%	−6.4%	-18.1 g	−13.9%	−67.5%	−23.0%	30.5%	triglyceride % [4]: −5.1%; average body weight at 24 weeks/g [4]: 130.1 g
